Laboratory results reported in US11655217B2, “Pyrazole MAGL inhibitors” (H. Lundbeck A/S, priority 2017, dated 2023).

Key:
FAAH = FAAH (Mus musculus (Mouse), UniProt O08914); assay: Mouse brain proteomes from inhibitor treated mice (oral gavage, sacrificed 4 h after administration, ABPP analysis), FAAH; settings: 5 mg/kg oral gavage
Method: (§1) Preparation of Mouse Brain Proteomes from Inhibitor Treated Mice.
(§2) Inhibitors were administered to wild-type C57Bl/6J by oral gavage in a vehicle of polyethylene glycol.

MAGL = MAGL (Mus musculus (Mouse), UniProt O35678); assay: Mouse brain proteomes from inhibitor treated mice (oral gavage, sacrificed 4 h after administration, ABPP analysis); settings: 5 mg/kg oral gavage
Chain of MAGL (O35678 whole entry): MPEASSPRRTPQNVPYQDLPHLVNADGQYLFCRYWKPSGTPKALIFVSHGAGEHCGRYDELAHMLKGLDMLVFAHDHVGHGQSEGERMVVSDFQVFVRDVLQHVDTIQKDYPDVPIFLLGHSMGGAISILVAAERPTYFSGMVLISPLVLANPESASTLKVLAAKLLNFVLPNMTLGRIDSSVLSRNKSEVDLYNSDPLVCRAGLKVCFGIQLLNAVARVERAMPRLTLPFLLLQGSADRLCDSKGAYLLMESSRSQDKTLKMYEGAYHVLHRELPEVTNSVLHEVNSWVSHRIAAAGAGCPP
Method: as §1, §2

Chain of FAAH (O08914 whole entry): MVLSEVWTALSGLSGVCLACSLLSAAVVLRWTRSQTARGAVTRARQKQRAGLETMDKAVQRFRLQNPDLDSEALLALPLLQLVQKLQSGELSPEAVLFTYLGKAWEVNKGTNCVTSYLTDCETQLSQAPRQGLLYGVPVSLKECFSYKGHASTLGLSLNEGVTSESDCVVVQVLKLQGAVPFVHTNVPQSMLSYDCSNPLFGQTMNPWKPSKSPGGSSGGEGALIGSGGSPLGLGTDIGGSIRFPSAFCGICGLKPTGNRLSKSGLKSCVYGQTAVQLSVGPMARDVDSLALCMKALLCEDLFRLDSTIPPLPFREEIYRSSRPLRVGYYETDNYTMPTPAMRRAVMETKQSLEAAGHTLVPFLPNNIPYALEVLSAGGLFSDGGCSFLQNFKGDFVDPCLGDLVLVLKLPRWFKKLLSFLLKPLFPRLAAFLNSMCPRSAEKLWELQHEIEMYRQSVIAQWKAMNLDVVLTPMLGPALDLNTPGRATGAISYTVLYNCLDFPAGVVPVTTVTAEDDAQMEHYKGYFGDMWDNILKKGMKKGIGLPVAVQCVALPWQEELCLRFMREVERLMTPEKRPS

Row | SMILES | FAAH % inh. 5 mg/kg (mouse) (FAAH) | MAGL % inh. 5 mg/kg (mouse) (MAGL)
1 | O=C(O)c1ccn(C(=O)N2CCN(Cc3ccc(C(F)(F)F)cc3N3CCOCC3)CC2)n1 [Example 3, 1-(4-(2-Morpholino-4-(trifluoromethyl)benzyl)piperazine-1-carbonyl)-1H-pyrazole-3-carboxylic Acid] | D (% inhibition is greater than or equal to 0% and less than 25%) | D (% inhibition is greater than or equal to 0% and less than 25%)
2 | CN(Cc1ccc(C(F)(F)F)cc1N1CCOCC1)C1(C)CCN(C(=O)n2ccc(C(=O)O)n2)CC1 [Example 4, 1-(4-Methyl-4-(methyl(2-morpholino-4-(trifluoromethyl)benzyl)amino)piperidine-1-carbonyl)-1H-pyrazole-3-carboxylic Acid] | D (% inhibition is greater than or equal to 0% and less than 25%) | D (% inhibition is greater than or equal to 0% and less than 25%)
3 | O=C(O)c1ccn(C(=O)N2CCN(Cc3ccc(C(F)(F)F)cc3N3CCN(C4CC4)CC3)CC2)n1 [Example 6, 1-(4-(2-(4-Cyclopropylpiperazin-1-yl)-4-(trifluoromethyl)benzyl)piperazine-1-carbonyl)-1H-pyrazole-3-carboxylic Acid] | D (% inhibition is greater than or equal to 0% and less than 25%) | D (% inhibition is greater than or equal to 0% and less than 25%)
4 | O=C(O)c1ccn(C(=O)N2CCN(Cc3ccc(C(F)(F)F)c(N4CCCC4)c3)CC2)n1 [Example 7, 1-(4-(3-(Pyrrolidin-1-yl)-4-(trifluoromethyl)benzyl)piperazine-1-carbonyl)-1H-pyrazole-3-carboxylic Acid] | D (% inhibition is greater than or equal to 0% and less than 25%) | D (% inhibition is greater than or equal to 0% and less than 25%)
5 | O=C(O)c1ccn(C(=O)N2CCN(Cc3ccc(C(F)(F)F)c(-c4nccs4)c3)CC2)n1 [Example 8, 1-(4-(3-(Thiazol-2-yl)-4-(trifluoromethyl)benzyl)piperazine-1-carbonyl)-1H-pyrazole-3-carboxylic Acid] | D (% inhibition is greater than or equal to 0% and less than 25%) | D (% inhibition is greater than or equal to 0% and less than 25%)
6 | CN(Cc1ccc(C(F)(F)F)cc1-c1nccs1)C1(C)CCN(C(=O)n2ccc(C(=O)O)n2)CC1 [Example 10, 1-(4-methyl-4-(methyl(2-(thiazol-2-yl)-4-(trifluoromethyl)benzyl)amino)piperidine-1-carbonyl)-1H-pyrazole-3-carboxylic Acid] | D (% inhibition is greater than or equal to 0% and less than 25%) | D (% inhibition is greater than or equal to 0% and less than 25%)
7 | O=C(O)c1ccn(C(=O)N2CCC(Oc3ccc(Cl)cc3N3CCCC3)CC2)n1 [Example 11, 1-(4-(4-Chloro-2-(pyrrolidin-1-yl)phenoxy)piperidine-1-carbonyl)-1H-pyrazole-3-carboxylic Acid] | D (% inhibition is greater than or equal to 0% and less than 25%) | D (% inhibition is greater than or equal to 0% and less than 25%)
8 | COC1CCN(c2cc(C(F)(F)F)ccc2CN2CCN(C(=O)n3ccc(C(=O)O)n3)CC2)CC1 [Example 12, 1-(4-(2-(4-Methoxypiperidin-1-yl)-4-(trifluoromethyl)benzyl)piperazine-1-carbonyl)-1H-pyrazole-3-carboxylic Acid] | D (% inhibition is greater than or equal to 0% and less than 25%) | D (% inhibition is greater than or equal to 0% and less than 25%)
9 | O=C(O)c1ccn(C(=O)N2CCN(Cc3ccc(C(F)(F)F)c(N4C5CCC4COC5)c3)CC2)n1 [Example 40, 1-(4-(3-(3-oxa-8-azabicyclo[3.2.1]octan-8-yl)-4-(trifluoromethyl)benzyl)piperazine-1-carbonyl)-1H-pyrazole-3-carboxylic acid] | D (% inhibition is greater than or equal to 0% and less than 25%) | D (% inhibition is greater than or equal to 0% and less than 25%)
10 | O=C(O)c1ccn(C(=O)N2CCC3(CCN(Cc4cc(Cl)ccc4C(F)(F)F)C3)CC2)n1 [Example 43, 1-(2-(5-chloro-2-(trifluoromethyl)benzyl)-2,8-diazaspiro[4.5]decane-8-carbonyl)-1H-pyrazole-3-carboxylic acid] | D (% inhibition is greater than or equal to 0% and less than 25%) | D (% inhibition is greater than or equal to 0% and less than 25%)
11 | O=C(O)c1ccn(C(=O)N2CCN(Cc3ccc(C(F)(F)F)cc3N3CCN4CCC[C@@H]4C3)CC2)n1 [Example 48, (R)-1-(4-(2-(hexahydropyrrolo-[1,2-a]pyrazin-2(1H)-yl)-4-(trifluoromethyl)benzyl)piperazine-1-carbonyl)-1H-pyrazole-3-carboxylic acid] | D (% inhibition is greater than or equal to 0% and less than 25%) | D (% inhibition is greater than or equal to 0% and less than 25%)
12 | O=C(O)c1ccn(C(=O)N2CCN(Cc3cccc(Oc4ccc(F)cc4)c3)CC2)n1 [Example 51, 1-(4-(3-(4-fluorophenoxy)benzyl)piperazine-1-carbonyl)-1H-pyrazole-3-carboxylic acid] | D (% inhibition is greater than or equal to 0% and less than 25%) | D (% inhibition is greater than or equal to 0% and less than 25%)
13 | O=C(O)c1ccn(C(=O)N2C[C@H]3C[C@H](OCc4ccc(Oc5ccc(Cl)cc5)cc4)C[C@H]3C2)n1 [Example 55, 1-(trans-5-((4-(4-chlorophenoxy)benzyl)-oxy)octahydrocyclo-penta-[c]pyrrole-2-carbonyl)-1H-pyrazole-3-carboxylic acid] | D (% inhibition is greater than or equal to 0% and less than 25%) | D (% inhibition is greater than or equal to 0% and less than 25%)
14 | O=C(O)c1ccn(C(=O)N2CCN(Cc3cccc(Oc4cc(C(F)(F)F)ccn4)c3)CC2)n1 [Example 57, 1-(4-(3-((4-(trifluoromethyl)pyridin-2-yl)oxy)benzyl)piperazine-1-carbonyl)-1H-pyrazole-3-carboxylic acid] | D (% inhibition is greater than or equal to 0% and less than 25%) | D (% inhibition is greater than or equal to 0% and less than 25%)
15 | O=C(O)c1ccn(C(=O)N2CCN(Cc3ccc(C(F)(F)F)cc3N3CCCC3)CC2)n1 [Example 83, 1-(4-(2-(pyrrolidin-1-yl)-4-(trifluoromethyl)benzyl)piperazine-1-carbonyl)-1H-pyrazole-3-carboxylic acid] | D (% inhibition is greater than or equal to 0% and less than 25%) | D (% inhibition is greater than or equal to 0% and less than 25%)
16 | O=C(O)c1ccn(C(=O)N2CCC3(CCCN3Cc3cc(Cl)cc(C(F)(F)F)c3)CC2)n1 [Example 86, 1-(1-(3-chloro-5-(trifluoromethyl)benzyl)-1,8-diazaspiro[4.5]decane-8-carbonyl)-1H-pyrazole-3-carboxylic acid] | D (% inhibition is greater than or equal to 0% and less than 25%) | D (% inhibition is greater than or equal to 0% and less than 25%)
17 | O=C(O)c1ccn(C(=O)N2CCC3(CCCN3Cc3cc(N4CCCC4)cc(C(F)(F)F)c3)CC2)n1 [Example 88, 1-(1-(3-(pyrrolidin-1-yl)-5-(trifluoromethyl)benzyl)-1,8-diazaspiro[4.5]decane-8-carbonyl)-1-1H-pyrazole-3-carboxylic acid] | D (% inhibition is greater than or equal to 0% and less than 25%) | D (% inhibition is greater than or equal to 0% and less than 25%)
18 | O=C(O)c1ccn(C(=O)N2CCN(Cc3cccc(C(F)(F)F)c3N3CCCC3)CC2)n1 [Example 90, 1-(4-(2-(pyrrolidin-1-yl)-3-(trifluoromethyl)benzyl)piperazine-1-carbonyl)-1H-pyrazole-3-carboxylic acid] | D (% inhibition is greater than or equal to 0% and less than 25%) | D (% inhibition is greater than or equal to 0% and less than 25%)
19 | O=C(O)c1ccn(C(=O)N2CCN(Cc3ccc(C(F)(F)F)cc3Cl)CC2)n1 [Example 91, 1-(4-(2-chloro-4-(trifluoromethyl)benzyl)piperazine-1-carbonyl)-1H-pyrazole-3-carboxylic acid] | D (% inhibition is greater than or equal to 0% and less than 25%) | D (% inhibition is greater than or equal to 0% and less than 25%)
20 | O=C(O)c1ccn(C(=O)N2CCN(Cc3ccc(C(F)(F)F)cc3N3CC[C@H](F)C3)CC2)n1 [Example 92, (S)-1-(4-(2-(3-fluoropyrrolidin-1-yl)-4-(trifluoromethyl)benzyl)-piperazine-1-carbonyl)-1H-pyrazole-3-carboxylic acid] | D (% inhibition is greater than or equal to 0% and less than 25%) | D (% inhibition is greater than or equal to 0% and less than 25%)
21 | O=C(O)c1ccn(C(=O)N2CCC3(CCCN3Cc3ccc(C(F)(F)F)cc3N3CCCC3)CC2)n1 [Example 93, 1-(1-(2-(pyrrolidin-1-yl)-4-(trifluoromethyl)benzyl)-1,8-diazaspiro[4.5]decane-8-carbonyl)-1H-pyrazole-3-carboxylic acid] | D (% inhibition is greater than or equal to 0% and less than 25%) | D (% inhibition is greater than or equal to 0% and less than 25%)
22 | C[C@@H]1CCCN1c1cc(C(F)(F)F)ccc1CN1CCN(C(=O)n2ccc(C(=O)O)n2)CC1 [Example 95, (R)-1-(4-(2-(2-methylpyrrolidin-1-yl)-4-(trifluoromethyl)benzyl)piperazine-1-carbonyl)-1H-pyrazole-3-carboxylic acid] | D (% inhibition is greater than or equal to 0% and less than 25%) | D (% inhibition is greater than or equal to 0% and less than 25%)
